Calls of active or inactive are those of the source. No cut-off for these calls is given here.
Legend:
[1] = target: T1, NAD-dependent protein deacetylase sirtuin-2 (Homo sapiens) (UniProt Q8IXJ6); test: Inhibition of recombinant SIRT2 assessed as lysine deacetylation at 25 uM relative to control; parameters: scale not given: the % may be the effect or the level left
T1 sequence (whole entry): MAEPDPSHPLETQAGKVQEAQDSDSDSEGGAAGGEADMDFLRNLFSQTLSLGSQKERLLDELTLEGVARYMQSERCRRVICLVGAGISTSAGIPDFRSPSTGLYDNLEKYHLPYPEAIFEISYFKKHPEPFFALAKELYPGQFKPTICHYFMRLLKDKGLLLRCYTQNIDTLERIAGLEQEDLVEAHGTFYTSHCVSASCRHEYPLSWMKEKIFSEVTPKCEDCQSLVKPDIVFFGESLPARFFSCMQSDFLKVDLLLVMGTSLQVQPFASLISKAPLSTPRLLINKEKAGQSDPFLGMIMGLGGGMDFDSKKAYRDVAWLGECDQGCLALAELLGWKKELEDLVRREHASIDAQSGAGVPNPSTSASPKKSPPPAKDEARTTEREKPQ

[2] = target: T2, NAD-dependent protein deacetylase sirtuin-1 (Homo sapiens) (UniProt Q96EB6); test: Inhibition of recombinant SIRT1 assessed as lysine deacetylation at 10 uM
T2 sequence (whole entry): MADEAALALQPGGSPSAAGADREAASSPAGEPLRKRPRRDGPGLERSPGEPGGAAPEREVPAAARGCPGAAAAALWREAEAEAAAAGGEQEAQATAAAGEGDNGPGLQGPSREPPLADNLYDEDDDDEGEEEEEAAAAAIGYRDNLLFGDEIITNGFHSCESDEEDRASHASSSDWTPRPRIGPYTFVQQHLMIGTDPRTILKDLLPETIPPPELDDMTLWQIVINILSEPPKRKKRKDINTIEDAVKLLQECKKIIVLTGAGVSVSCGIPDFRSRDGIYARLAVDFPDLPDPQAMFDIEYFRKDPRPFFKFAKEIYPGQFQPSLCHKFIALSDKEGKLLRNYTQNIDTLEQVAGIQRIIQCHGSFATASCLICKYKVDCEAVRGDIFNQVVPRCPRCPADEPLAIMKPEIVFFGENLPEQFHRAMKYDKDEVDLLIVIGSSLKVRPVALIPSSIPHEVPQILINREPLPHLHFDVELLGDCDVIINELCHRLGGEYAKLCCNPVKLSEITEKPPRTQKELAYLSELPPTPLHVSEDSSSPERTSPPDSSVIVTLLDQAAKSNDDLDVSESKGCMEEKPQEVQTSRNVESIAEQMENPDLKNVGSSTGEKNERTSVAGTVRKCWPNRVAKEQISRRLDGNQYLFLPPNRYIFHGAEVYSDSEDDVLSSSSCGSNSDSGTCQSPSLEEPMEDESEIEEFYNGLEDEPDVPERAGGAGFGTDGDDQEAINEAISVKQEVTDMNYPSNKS

[3] = target: T3, NAD-dependent protein deacetylase sirtuin-3, mitochondrial (Homo sapiens) (UniProt Q9NTG7); test: Inhibition of recombinant SIRT3 assessed as lysine deacetylation at 10 uM relative to control
T3 sequence (whole entry): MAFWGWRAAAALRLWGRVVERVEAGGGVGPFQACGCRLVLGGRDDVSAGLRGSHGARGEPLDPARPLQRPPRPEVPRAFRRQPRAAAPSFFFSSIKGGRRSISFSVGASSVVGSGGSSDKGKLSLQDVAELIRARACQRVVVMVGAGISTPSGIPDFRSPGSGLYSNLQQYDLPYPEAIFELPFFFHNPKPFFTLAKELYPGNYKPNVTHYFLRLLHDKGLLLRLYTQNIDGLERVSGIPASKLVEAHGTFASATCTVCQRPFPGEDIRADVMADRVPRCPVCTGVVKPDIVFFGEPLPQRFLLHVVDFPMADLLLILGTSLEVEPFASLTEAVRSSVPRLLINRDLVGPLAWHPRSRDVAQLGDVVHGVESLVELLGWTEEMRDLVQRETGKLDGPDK

[4] = target: T1, NAD-dependent protein deacetylase sirtuin-2 (Homo sapiens); test: Inhibition of recombinant SIRT2 assessed as lysine deacetylation at 10 uM relative to control; parameters: scale not given: the % may be the effect or the level left
[5] = target: T1, NAD-dependent protein deacetylase sirtuin-2 (Homo sapiens); test: Inhibition of recombinant SIRT2 assessed as lysine deacetylation at 1 to 50 uM
[6] = target: T1, NAD-dependent protein deacetylase sirtuin-2 (Homo sapiens); test: Inhibition of recombinant SIRT2 assessed as lysine deacetylation at 6.25 to 25 uM
[7] = target: T2, NAD-dependent protein deacetylase sirtuin-1 (Homo sapiens); test: Inhibition of recombinant SIRT1 assessed as lysine deacetylation up to 50 uM
[8] = target: T3, NAD-dependent protein deacetylase sirtuin-3, mitochondrial (Homo sapiens); test: Inhibition of recombinant SIRT3 assessed as lysine deacetylation up to 50 uM
[9] = target: T1, NAD-dependent protein deacetylase sirtuin-2 (Homo sapiens); test: Inhibition of recombinant SIRT2 assessed as lysine deacetylation at 50 uM relative to control; parameters: scale not given: the % may be the effect or the level left

With `O=C(Nc1ccc(Br)cc1)c1cccc(S(=O)(=O)Nc2ccc(Br)cc2)c1` the Activity [1] was 85%.
For `CN(C(=O)c1cccc(S(=O)(=O)N(C)c2ccc(C(F)(F)F)cc2)c1)c1ccc(Br)cc1`, the inhibition [2] was “inactive”, the inhibition [3] was “inactive” and the Activity [4] was 55%.
`CCN(c1ccc(Br)cc1)S(=O)(=O)c1cccc(C(=O)Nc2ccc(Br)cc2)c1` showed an Activity [1] of 82%.
Compound `CN(C(=O)c1cccc(S(=O)(=O)N(C)c2ccc(Cl)cc2)c1)c1ccc(Br)cc1` has an Activity [4] of 72%.
`CN(C(=O)c1cccc(S(=O)(=O)N(C)c2ccc(Br)cc2)c1)c1ccc(Cl)cc1` was tested, and the inhibition [2] was “inactive”, the inhibition [3] was “inactive” and the Activity [4] was 54%. The inhibition [5] was “Active”.
`CN(c1ccc(Br)cc1)S(=O)(=O)c1cccc(C(=O)Nc2ccc(Br)cc2)c1` was tested, and the Activity [1] was 56%, the inhibition [6] was “Active” and the inhibition [7] was “inactive”. The inhibition [8] was “inactive”.
In the case of `CN(C(=O)c1cccc(S(=O)(=O)N(C)c2ccc(Br)cc2)c1)c1ccc(F)cc1`, the Activity [9] is reported as 57%.
With `CN(C(=O)c1cccc(S(=O)(=O)N(C)c2ccc(Br)cc2)c1)c1ccc(C(F)(F)F)cc1` the Activity [9] was 76%.
`CN(C(=O)c1cccc(S(=O)(=O)N(C)c2ccc(Cl)cc2)c1)c1ccc(Cl)cc1` was tested, and the inhibition [2] was “inactive”, the inhibition [3] was 5% and the inhibition [5] was “Active”.
`O=C(Nc1ccc(Br)cc1)c1cccc(S(=O)(=O)N(Cc2ccccc2)c2ccc(Br)cc2)c1` was tested, and the Activity [1] was 80%.
`C=CCN(c1ccc(Br)cc1)S(=O)(=O)c1cccc(C(=O)Nc2ccc(Br)cc2)c1` showed an Activity [1] of 92%.
With `O=C(Nc1cccc([N+](=O)[O-])c1)c1cccc(S(=O)(=O)N2CCCCCC2)c1` the inhibition [7] was “Active”.
In the case of `CN(C(=O)c1cccc(S(=O)(=O)N(C)c2ccc(Br)cc2)c1)c1ccc(Br)cc1`, the inhibition [6] is reported as “Active”, the inhibition [7] is reported as “inactive” and the inhibition [8] is reported as “inactive”. For the same compound, the inhibition [5] was “Active”.

— ChEMBL document CHEMBL2016526, “3-(N-arylsulfamoyl)benzamides, inhibitors of human sirtuin type 2 (SIRT2)” (Bioorg Med Chem Lett, 2012)
